Results on 30 molecules are retold here after patent US20100190747A1, “Fused ring compound and use thereof” (priority 2009, published 2010).

In general, inhibition refers to the relative decrease from the control value, in per cent.

In the first assay the target is T1, delta-5-desaturase (Rattus norvegicus, UniProt Q920R3).
T1 construct: the microsomal fraction of a rat river (10 μl), which had been diluted to 3 mg/ml; from tissue; host or cells: rat liver microsomal fraction
T1 sequence (Q920R3 whole entry): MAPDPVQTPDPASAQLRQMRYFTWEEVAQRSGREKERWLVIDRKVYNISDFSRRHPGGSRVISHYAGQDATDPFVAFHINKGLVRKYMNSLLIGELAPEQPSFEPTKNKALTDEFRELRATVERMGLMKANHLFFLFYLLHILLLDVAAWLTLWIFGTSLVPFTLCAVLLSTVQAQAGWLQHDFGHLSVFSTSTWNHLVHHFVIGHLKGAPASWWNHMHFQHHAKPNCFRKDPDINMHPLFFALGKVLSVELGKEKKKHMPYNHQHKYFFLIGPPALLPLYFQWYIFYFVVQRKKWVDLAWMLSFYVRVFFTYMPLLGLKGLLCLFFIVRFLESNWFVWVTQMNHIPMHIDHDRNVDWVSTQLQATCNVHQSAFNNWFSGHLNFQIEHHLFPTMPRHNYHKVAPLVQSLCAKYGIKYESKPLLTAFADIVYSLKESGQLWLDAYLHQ
Description: Inhibitory activity on delta-5-desaturase (rat liver microsomal fraction, 14C-eicosatrienoic acid, TLC). In kind it is biochemical. The note with it: test compound at 10 μM, room temperature, 120 minutes. In outline: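 Rat liver microsomes (3 mg/ml before addition) incubated with test compound at 10 μM, NADH, ATP, CoA and 14C-eicosatrienoic acid in phosphate buffer pH 7.4 with BSA and glutathione, 120 min at room temperature. Lipids saponified, extracted, separated by reverse-phase TLC and imaged; % inhibition reported.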
Regarding `CC(C)OCC(O)CSc1nc2cc[nH]c2c(=O)n1-c1ccc(OCC(F)(F)F)cc1` (stereo not drawn) [Example 130, 2-{[2-Hydroxy-3-(1-methylethoxy)propyl]sulfanyl}-3-[4-(2,2,2-trifluoroethoxy)phenyl]-3,5-dihydro-4H-pyrrolo[3,2-d]pyrimidin-4-one], the inhibition at 10 µM stood at 100%. The same measure, in the same setting: the value for `N#CCCCSc1nc2cc[nH]c2c(=O)n1-c1ccc(OCC(F)(F)F)cc1` [Example 86, 4-({4-Oxo-3-[4-(2,2,2-trifluoroethoxy)phenyl]-4,5-dihydro-3H-pyrrolo[3,2-d]pyrimidin-2-yl}sulfanyl)butanenitrile] was 99%.

In the case of `O=C1Cc2c(nc(Oc3ccc(F)cc3)n(-c3ccc(OCC(F)(F)C(F)(F)F)cc3)c2=O)N1` [Example 311, 2-(4-Fluorophenoxy)-3-[4-(2,2,3,3,3-pentafluoropropoxy)phenyl]-5,7-dihydro-3H-pyrrolo[2,3-d]pyrimidine-4,6-dione], the inhibition at 10 µM was 98%. The same measure, in the same setting: then `N#CCCNC(=O)CCCSc1nc2[nH]ccc2c(=O)n1-c1ccc(OCC2CC2(F)F)cc1` (stereo not drawn) [Example 177, N-(2-cyanoethyl)-4-[(3-{4-[(2,2-difluorocyclopropyl)methoxy]phenyl}-4-oxo-4,7-dihydro-3H-pyrrolo[2,3-d]pyrimidin-2-yl)sulfanyl]butanamide], with 100%; and `CCOc1ccc(-n2c(SCCCS(=O)(=O)NCCC#N)nc3cc[nH]c3c2=O)cc1` [Example 62, N-(2-cyanoethyl)-3-{[3-(4-ethoxyphenyl)-4-oxo-4,5-dihydro-3H-pyrrolo[3,2-d]pyrimidin-2-yl]sulfanyl}propane-1-sulfonamide], with 102%. With `CC(C)OCCCSc1nc2cc[nH]c2c(=O)n1-c1ccc(OCC(F)(F)F)cc1` [Example 137, 2-{[3-(1-Methylethoxy)propyl]sulfanyl}-3-[4-(2,2,2-trifluoroethoxy)phenyl]-3,5-dihydro-4H-pyrrolo[3,2-d]pyrimidin-4-one], the inhibition at 10 µM stood at 99%. On the same count and under the same terms, then `CCOCCCSc1nc2c(c(=O)n1-c1ccc(OCC(F)(F)F)cc1)CC(=O)N2` [Example 302, 2-[(3-Ethoxypropyl)sulfanyl]-3-[4-(2,2,2-trifluoroethoxy)phenyl]-5,7-dihydro-3H-pyrrolo[2,3-d]pyrimidine-4,6-dione], with 94%. On the same count and under the same terms, then `O=c1c2[nH]ccc2nc(SC(F)F)n1-c1ccc(OCC(F)(F)F)cc1` [Example 129, 2-[(Difluoromethyl)sulfanyl]-3-[4-(2,2,2-trifluoroethoxy)phenyl]-3,5-dihydro-4H-pyrrolo[3,2-d]pyrimidin-4-one], with 101%; and `CC(C)Sc1nc2c(c(=O)n1-c1ccc(OCC(F)(F)F)cc1)CC(=O)N2` [Example 285, 2-[(1-Methylethyl)sulfanyl]-3-[4-(2,2,2-trifluoroethoxy)phenyl]-5,7-dihydro-3H-pyrrolo[2,3-d]pyrimidine-4,6-dione], with 96%; and `NS(=O)(=O)CCCSc1nc2cc[nH]c2c(=O)n1-c1ccc(OCC(F)(F)F)cc1` [Example 120, 3-({4-Oxo-3-[4-(2,2,2-trifluoroethoxy)phenyl]-4,5-dihydro-3h-pyrrolo[3,2-d]pyrimidin-2-yl}sulfanyl)propane-1-sulfonamide], with 101%. Same read-out and setting: then `CCOc1ccc(-n2c(SCCCC(=O)NCCC#N)nc3cc[nH]c3c2=O)cc1` [Example 60, N-(2-cyanoethyl)-4-{[3-(4-ethoxyphenyl)-4-oxo-4,5-dihydro-3H-pyrrolo[3,2-d]pyrimidin-2-yl]sulfanyl}butanamide], with 99%. Take `CCOCCOCCSc1nc2cc[nH]c2c(=O)n1-c1ccc(OCC2CC2)c(Cl)c1` [Example 163, 3-[3-Chloro-4-(cyclopropylmethoxy)phenyl]-2-{[2-(2-ethoxyethoxy)ethyl]sulfanyl}-3,5-dihydro-4H-pyrrolo[3,2-d]pyrimidin-4-one]: the inhibition at 10 µM amounted to 99%.

In the case of `CCCCSc1nc2[nH]ccc2c(=O)n1-c1ccc(OCC(F)(F)F)cc1` [Example 252, 2-(Butylsulfanyl)-3-[4-(2,2,2-trifluoroethoxy)phenyl]-3,7-dihydro-4H-pyrrolo[2,3-d]pyrimidin-4-one], the inhibition at 10 µM came out at 96%. The same measure, in the same setting: the value for `O=C(CCCSc1nc2cc[nH]c2c(=O)n1-c1ccc(OCC(F)(F)F)cc1)N1CCC(O)CC1` [Example 98, 2-{[4-(4-Hydroxypiperidin-1-yl)-4-oxobutyl]sulfanyl}-3-[4-(2,2,2-trifluoroethoxy)phenyl]-3,5-dihydro-4H-pyrrolo[3,2-d]pyrimidin-4-one] was 100%; that for `CC(C)CCOc1ccc(-n2c(SCCCC(=O)NCCC#N)nc3cc[nH]c3c2=O)cc1` [Example 113, N-(2-cyanoethyl)-4-({3-[4-(3-methylbutoxy)phenyl]-4-oxo-4,5-dihydro-3H-pyrrolo[3,2-d]pyrimidin-2-yl}sulfanyl)butanamide] was 102%. Same read-out and setting: then `CC(C)Oc1nc2c(c(=O)n1-c1ccc(OCC(F)(F)C(F)(F)F)cc1)CC(=O)N2` [Example 310, 2-(1-Methylethoxy)-3-[4-(2,2,3,3,3-pentafluoropropoxy)phenyl]-5,7-dihydro-3H-pyrrolo[2,3-d]pyrimidine-4,6-dione], with 99%.

Turning to `CCOc1ccc(-n2c(SCCCC(=O)N(C)CCC#N)nc3cc[nH]c3c2=O)cc1` [Example 66, N-(2-cyanoethyl)-4-{[3-(4-ethoxyphenyl)-4-oxo-4,5-dihydro-3H-pyrrolo[3,2-d]pyrimidin-2-yl]sulfanyl}-N-methylbutanamide], the inhibition at 10 µM stood at 101%.

With `CC(C)(C)COc1ccc(-n2c(SCCCC(=O)NCCC#N)nc3[nH]ccc3c2=O)cc1` [Example 174, N-(2-cyanoethyl)-4-({3-[4-(2,2-dimethylpropoxy)phenyl]-4-oxo-4,7-dihydro-3H-pyrrolo[2,3-d]pyrimidin-2-yl}sulfanyl)butanamide], the inhibition at 10 µM came to 100%. Same read-out and setting: the value for `CCCOc1nc2[nH]ccc2c(=O)n1-c1ccc(OCC(F)(F)F)cc1` [Example 217, 2-Propoxy-3-[4-(2,2,2-trifluoroethoxy)phenyl]-3,7-dihydro-4H-pyrrolo[2,3-d]pyrimidin-4-one] was 99%. On the same count and under the same terms, the value for `O=C(CCCSc1nc2cc[nH]c2c(=O)n1-c1ccc(OCC(F)(F)F)cc1)N1CCCC1` [Example 110, 2-[(4-Oxo-4-pyrrolidin-1-ylbutyl)sulfanyl]-3-[4-(2,2,2-trifluoroethoxy)phenyl]-3,5-dihydro-4H-pyrrolo[3,2-d]pyrimidin-4-one] was 102%; that for `O=c1c2[nH]ccc2nc(SCCC2(O)CCOCC2)n1-c1ccc(OCC2CC2)cc1` [Example 155, 3-[4-(Cyclopropylmethoxy)phenyl]-2-{[2-(4-hydroxytetrahydro-2H-pyran-4-yl)ethyl]sulfanyl}-3,5-dihydro-4H-pyrrolo[3,2-d]pyrimidin-4-one] was 99%; that for `O=c1c2cc[nH]c2nc(SCCO)n1-c1ccc(OCC(F)(F)F)cc1` [Example 214, 2-[(2-Hydroxyethyl)sulfanyl]-3-[4-(2,2,2-trifluoroethoxy)phenyl]-3,7-dihydro-4H-pyrrolo[2,3-d]pyrimidin-4-one] was 101%. For the molecule `O=C1Cc2c(nc(SCC(F)(F)F)n(-c3ccc(OCC(F)(F)F)cc3)c2=O)N1` [Example 298, 3-[4-(2,2,2-Trifluoroethoxy)phenyl]-2-[(2,2,2-trifluoroethyl)sulfanyl]-5,7-dihydro-3H-pyrrolo[2,3-d]pyrimidine-4,6-dione], the inhibition at 10 µM is 101%.

For `CC(C)Oc1nc2[nH]ccc2c(=O)n1-c1ccc(OCC(F)(F)F)cc1` [Example 221, 2-(1-Methylethoxy)-3-[4-(2,2,2-trifluoroethoxy)phenyl]-3,7-dihydro-4H-pyrrolo[2,3-d]pyrimidin-4-one], the inhibition at 10 µM stood at 104%.

Take `CCOc1ccc(-n2c(SCCCC(=O)NCC#N)nc3cc[nH]c3c2=O)cc1` [Example 63, N-(cyanomethyl)-4-{[3-(4-ethoxyphenyl)-4-oxo-4,5-dihydro-3H-pyrrolo[3,2-d]pyrimidin-2-yl]sulfanyl}butanamide]: the inhibition at 10 µM is 98%. On the same count and under the same terms, then `O=C(CCCSc1nc2cc[nH]c2c(=O)n1-c1ccc(OCC(F)(F)F)cc1)N1CCSCC1` [Example 136, 2-[(4-Oxo-4-thiomorpholin-4-ylbutyl)sulfanyl]-3-[4-(2,2,2-trifluoroethoxy)phenyl]-3,5-dihydro-4H-pyrrolo[3,2-d]pyrimidin-4-one], with 99%; and `N#CCCNC(=O)CCCSc1nc2[nH]ccc2c(=O)n1-c1ccc(OCCC(F)(F)F)cc1` [Example 189, N-(2-cyanoethyl)-4-({4-oxo-3-[4-(3,3,3-trifluoropropoxy)phenyl]-4,7-dihydro-3H-pyrrolo[2,3-d]pyrimidin-2-yl}sulfanyl)butanamide], with 105%. Still for that read-out and setting: the value for `O=C1Cc2c(nc(OCC(F)F)n(-c3ccc(OCC(F)(F)F)cc3)c2=O)N1` [Example 275, 2-(2,2-Difluoroethoxy)-3-[4-(2,2,2-trifluoroethoxy)phenyl]-5,7-dihydro-3H-pyrrolo[2,3-d]pyrimidine-4,6-dione] was 99%. On the same count and under the same terms, the value for `O=c1c2[nH]ccc2nc(SCCCS(=O)(=O)N2CCOCC2)n1-c1ccc(OCC(F)(F)F)cc1` [Example 106, 2-{[3-(Morpholin-4-ylsulfonyl)propyl]sulfanyl}-3-[4-(2,2,2-trifluoroethoxy)phenyl]-3,5-dihydro-4H-pyrrolo[3,2-d]pyrimidin-4-one] was 102%.

Still in this assay, the particulars now being: test compound at 10 μM, room temperature, 120 minutes, 10 µM.
Consider `O=c1c2cc[nH]c2nc(OC2CCC2)n1-c1ccc(OCC(F)(F)F)cc1` [Example 283, 2-(Cyclobutyloxy)-3-[4-(2,2,2-trifluoroethoxy)phenyl]-3,7-dihydro-4H-pyrrolo[2,3-d]pyrimidin-4-one], for which the “Inhibitory activity at 10 μM (%)” value is listed as 101%.
